Source: EP0468448B1, “Analogs of hirudin having antiplatelet activity” (MERRELL PHARMACEUTICALS INC., priority 1990, dated 1992)
Numbered stars: 1 amine (or outer) side, 2 acyl side, 3 side chain; on linkers, the order of the positions; unused ones are H or OH. Square brackets hold non-standard residues; d marks the D form. Peptide text beside a SMILES is read from it. Cha = N[C@@H](CC1CCCCC1)C(=O)O; Suc = O=C(CCC(=O)[*:2])[*:1]; Ava = NCCCCC(=O)O

System: platelet
Test: Dog antiplatelet activity
Assay type: cell-based
Conditions: read-out: Dog Antiplatelet IC₅₀

Compared with CC[C@H](C)[C@H](NC(=O)[C@@H]1CCCN1C(=O)[C@H](CCC(=O)O)NC(=O)[C@H](Cc1c[nH]c2ccccc12)NC(=O)[C@H](CC(=O)O)NC(=O)CNC(=O)CCCCNC(=N)N)C(=O)N1CCC[C@H]1C(=O)N[C@@H](CCC(=O)O)C(=O)N[C@@H](CCC(=O)O)C(=O)N[C@@H](C)C(=O)N[C@@H](CC1CCCCC1)C(=O)N[C@H](CCC(=O)O)C(=O)O [Example 1], CC[C@H](C)[C@H](NC(=O)[C@@H]1CCCN1C(=O)[C@H](CCC(=O)O)NC(=O)[C@H](Cc1ccc(OC)cc1)NC(=O)[C@H](CC(=O)O)NC(=O)CNC(=O)CCCCNC(=N)N)C(=O)N1CCC[C@H]1C(=O)N[C@@H](CCC(=O)O)C(=O)N[C@@H](CCC(=O)O)C(=O)N[C@@H](C)C(=O)N[C@@H](CC1CCCCC1)C(=O)N[C@H](CCC(=O)O)C(=O)O [Example 5, 5GP-Gly-Asp-Tyr(OCH₃)-Glu-Pro-Ile-Pro-Glu-Glu-Ala-Cha-glu-OH] is 1.7-fold higher in IC50: 6 µM for the first, 10 µM for the second. The first is the more potent here.

CC[C@H](C)[C@H](NC(=O)[C@H](CCC(=O)O)NC(=O)[C@H](CCC(=O)O)NC(=O)[C@H](Cc1c[nH]c2ccccc12)NC(=O)[C@H](CC(=O)O)NC(=O)CNC(=O)CCCCN)C(=O)N1CCC[C@H]1C(=O)N[C@@H](CCC(=O)O)C(=O)N[C@@H](CCC(=O)O)C(=O)N[C@@H](C)C(=O)N[C@@H](CC1CCCCC1)C(=O)N[C@H](CCC(=O)O)C(=O)O [Example 2] (H-[Ava]GDWEEIPEEA[Cha][dE]-OH) and CC[C@H](C)[C@H](NC(=O)[C@@H]1CCCN1C(=O)[C@H](CCC(=O)O)NC(=O)[C@H](Cc1ccc(OC)cc1)NC(=O)[C@H](CC(=O)O)NC(=O)CNC(=O)CCCCN)C(=O)N1CCC[C@H]1C(=O)N[C@@H](CCC(=O)O)C(=O)N[C@@H](CCC(=O)O)C(=O)N[C@@H](C)C(=O)N[C@@H](CC1CCCCC1)C(=O)N[C@H](CCC(=O)O)C(=O)O [Example 3, 5AP-Gly-Asp-Tyr(OCH₃)-Glu-Pro-Ile-Pro-Glu-Glu-Ala-Cha-glu-OH] are within 1.5-fold of each other in IC50: 250 µM for the first, 280 µM for the second.

Work on CC[C@H](C)[C@H](NC(=O)[C@@H]1CCCN1C(=O)[C@H](CCC(=O)O)NC(=O)[C@H](Cc1ccc(O)cc1)NC(=O)CCC(=O)O)C(=O)N1CCC[C@H]1C(=O)N[C@@H](CCCNC(=N)N)C(=O)NCC(=O)N[C@@H](CC(=O)O)C(=O)N[C@@H](Cc1ccccc1)C(=O)N[C@H](CCC(=O)O)C(=O)O [Example 4] (Suc-YEPIPRGDF[dE]-OH) yielded an IC50 of 42 µM.
